Measurements: patent US20100129800A1, “POLYMERS AND THEIR USE AS FLUORESCENT LABELS” (priority 2007, published 2010)
Like-named read-outs stand apart in the source and are kept apart here.

Assays:
[1] = test system: c-myc promoter region G-quadruplex; conditions: 1 μM ligand, 24 hours, room temperature
Excerpt: (§1) Compounds that bind nucleic acids may show preference for certain sequences. This preference can be used for the detection of specific nucleic acid sequences. One of the methods used to analyse the sequence specificity of DNA-binding compounds is the competition dialysis (c.f. Ren, J. et al., “Sequence and structural selectivity of nucleic acid binding ligands”, Biochemistry, 1999, vol. 38, pp […]). In this method different nucleic acid structures are dialyzed against a common compound solution. […] The amount of compound present in each DNA sequence is measured by fluorescence.
(§2) Furthermore, the inventors analyzed the binding properties of two dimers of the invention, Act-p-Act and Act-p-Qut, in front of several DNA sequences which are known in the state in the art to be biologically-relevant G-quadruplex structures: • 5′- […]-3′, (SEQ ID NO: 1 supra) as thrombin-binding aptamer: G-quadruplex; • 5′- […]-3′ (SEQ ID NO: 2) as a fragment of the promoter region of c-myc oncogen (c.f. Siddiqui-Jain A. et al., “Direct evidence for a G-quadruplex in a promoter region and its targeting with a small molecule to repress c-myc transcription”, Proc. Natl. Acad. Sci. USA, 2002, v. 99, p. […]
(§3) The concentration of the polymer (which is determined by fluorescence spectroscopy) indicates its specificity for a specific sequence: the more higher is the concentration, more specific is for said sequence.

[2] = test system: human telomere G-quadruplex; conditions: 1 μM ligand, 24 hours, room temperature
Excerpt: as §1, §2, §3

[3] = Fluorescence properties of the new compounds (excitation and emission wavelengths); assay type: physicochemical
AT rich sequences = assay: Competitive dialysis; assay type: binding
Excerpt: as §1
(§4) We analysed the sequence specificity of the following polymers of the invention: Aca-p-Aca, QgpQgp(npa), Act-(p-Act)5, Act-p-Qut-p-Agt, Act-p-Qut-p-Act, Act-p-Qut-p-Nct, Qut-p-Qut-p-Qut, Act-p-Qut-p-Qut, and Act-p-Act-p-Act for DNA sequences: • duplex with an alternating CG sequence (5′-CGCGCG-T4-CGCGCG-3′); • duplex with a contiguous CG sequence (5′- CCCGGG-T4-CCCGGG-3′); • duplex with an alternating AT sequence (5′-[…]-T4-[…]); • duplex with a contiguous AT sequence (5′-[…]-T4-[…]); • a parallel triplex (5′-T20-3′-3′-T20-5′+A20); and • a G-quadruplex (thrombin-binding aptamer: 5′-[…]-3′ (SEQ ID NO 1); (c.f. Bock, L. C. et al., “Selection of single-stranded DNA molecules that bind and inhibit human thrombin”, Nature, 1992, vol. 355, pp 564-566).
(§5) Said DNA sequences have been used in order to determine: 1) the affinity of each one of the polymers for a specific tandem of nucleotides (CG, AT, GT); and 2) if the affinity for a specific tandem of nucleotides is affected by its distribution into the sequence (i.e., if the tandem is alternated or contiguous in the sequence).
(§6) The competition dialysis assay was performed placing into a beaker 200 ml of dialysate solution containing 1 μM of ligand in 2 mM sodium phosphate, 2 mM EDTA and 0.185 M NaCl pH 7.0. A volume of 0.1 ml (at 1 mg/ml) of each DNA samples was pipeted into a separate 0.1 ml dialysis unit (Mini Slide-A-lyzer 3.5K, Pierce). The dialysis units were placed in the beaker containing the dialysate solution using a floating device. The contents were allowed to equilibrate with continuous stirring for 24 hours at room temperature. At the end of the equilibration period, DNA samples were carefully removed to eppendorf tubes and were taken to a final concentration of 1% (w/v) sodium dodecyl sulfate (SDS). The concentration of polymer within each dialysis unit was then determined by fluorescence spectroscopy. The free polymer concentration was determined using an aliquot of the dialysate solution as well as with the solution coming from a blank (without DNA) dialysis unit.
as §3

[4] = test system: parallel triplex (5′-T20-3′-3′-T20-5′+A20); assay: Competitive dialysis; assay type: binding
Excerpt: as §1, §4, §5, §6, §3

[5] = test system: duplex with a contiguous CG sequence (5′- CCCGGG-T4-CCCGGG-3′); assay: Competitive dialysis; assay type: binding
Excerpt: as §1, §4, §5, §6, §3

[6] = test system: G-quadruplex (thrombin-binding aptamer: 5′-GGTTGGTGTGGTTGG-3′); conditions: 1 μM ligand, 24 hours, room temperature
Excerpt: as §1
(§7) We analysed the sequence specificity of the following polymers of the invention: Aca-p-Aca, QgpQgp(npa), Act-(p-Act)5, Act-p-Qut-p-Agt, Act-p-Qut-p-Act, Act-p-Qut-p-Nct, Qut-p-Qut-p-Qut, Act-p-Qut-p-Qut, and Act-p-Act-p-Act for DNA sequences: • duplex with an alternating CG sequence (5′-CGCGCG-T4-CGCGCG-3′); • duplex with a contiguous CG sequence (5′- CCCGGG-T4-CCCGGG-3′); • duplex with an alternating AT sequence (5′-[…]-T4-[…]); • duplex with a contiguous AT sequence (5′-[…]-T4-[…]); • a parallel triplex (5′-T20-3′-3′-T20-5′+A20); and • a G-quadruplex (thrombin-binding aptamer: 5′-[…]-3′ (SEQ ID NO 1); (c.f. Bock, L. C. et al., “Selection of single-stranded DNA molecules that bind and inhibit human thrombin”, Nature, 1992, vol. 355, pp 564-566). […]

[7] = test system: duplex with a contiguous AT sequence (5′-AAAATTTT-T4-AAAATTTT); conditions: 1 μM ligand, 24 hours, room temperature
Excerpt: as §1, §7

[8] = 1 μM ligand, 24 hours, room temperature

Compound | Fluorescence Excitation (nm) ([3]; free compound) | Fluorescence emission (nm) ([3]; free compound) | affinity (concentration of polymer retained, by fluorescence) (AT rich sequences; [8]) | affinity (concentration of polymer retained, by fluorescence) [4, 8] | affinity (concentration of polymer retained, by fluorescence) [5, 8] | further results
CC(O)C(COP(=O)(O)OC(C)C(CO)NC(=O)c1c2ccccc2nc2ccccc12)NC(=O)c1c2ccccc2nc2c1[nH]c1ccccc12 (centres unmarked) [Example 27, O-{2-N-(Acridine-9-carbamoyl)-(1-hydroxybut-3-yl)} and O-{2-N-(10H-indolo[3,2-d]quinoline-11-carbamoyl)-3-hydroxybut-1-yl) phosphate] | 358 nm | 438 nm |  |  |  | affinity (concentration of polymer retained, by fluorescence) [1]: very high affinity; affinity (concentration of polymer retained, by fluorescence) [2]: very high affinity
CC(O)C(COP(=O)(O)OC(C)C(COP(=O)(O)OC(C)C(CO)NC(=O)c1c2ccccc2nc2ccccc12)NC(=O)c1c2ccccc2nc2c1[nH]c1ccccc12)NC(=O)c1c2ccccc2nc2c1[nH]c1ccccc12 (centres unmarked) [Example 29, O-{2-N-(Acridine-9-carbamoyl)-(1-hydroxybut-3-yl)} phosphate (3-1) O-{2-N-(10H-indolo[3,2-d]quinoline-11-carbamoyl)-3-oxybut-1-yl} phosphate (3-1) O-(2-N-{10H-indolo[3,2-d]quinoline-11-carbamoyl}-3-hydroxybut-1-yl)] | 353 nm | 440 nm | higher affinity | higher affinity | higher affinity | 
CC(O)C(COP(=O)(O)OC(C)C(COP(=O)(O)OC(C)C(COP(=O)(O)OC(C)C(COP(=O)(O)OC(C)C(COP(=O)(O)OC(C)C(CO)NC(=O)c1c2ccccc2nc2ccccc12)NC(=O)c1c2ccccc2nc2ccccc12)NC(=O)c1c2ccccc2nc2ccccc12)NC(=O)c1c2ccccc2nc2ccccc12)NC(=O)c1c2ccccc2nc2ccccc12)NC(=O)c1c2ccccc2nc2ccccc12 (centres unmarked) [Example 30, O-{2-N-(Acridine-9-carbamoyl)-(1-hydroxybut-3-yl)} phosphate (3-1) O-{2-N-(acridine-9-carbamoyl)-(1-hydroxybut-3-yl)} phosphate (3-1) O-{2-N-(acridine-9-carbamoyl)-(1-hydroxybut-3-yl)} phosphate (3-1) O-{2-N-(acridine-9-carbamoyl)-(1-hydroxybut-3-yl)} phosphate (3-1) O-{2-N-(acridine-9-carbamoyl)-(1-hydroxybut-3-yl)} phosphate (3-1) O-{2-N-(acridine-9-carbamoyl)-3-hydroxybut-1-yl}] | 350 nm | 438 nm |  | high affinity |  | 
CC(O)C(COP(=O)(O)OC(C)C(COP(=O)(O)OC(C)C(CO)NC(=O)c1c2ccccc2nc2c1[nH]c1ccccc12)NC(=O)c1c2ccccc2nc2c1[nH]c1ccccc12)NC(=O)c1c2ccccc2nc2c1[nH]c1ccccc12 (centres unmarked) [Example 42, O-{2-N-(10H-indolo[3,2-d]quinoline-11-carbamoyl)-3-oxybut-1-yl} phosphate (3-1) O-{2-N-(10H-indolo[3,2-d]quinoline-11-carbamoyl)-3-oxybut-1-yl} phosphate (3-1) O-(2-N-{10H-indolo[3,2-d]quinoline-11-carbamoyl}-3-hydroxybut-1-yl)] | 359 nm | 499 nm | higher affinity | higher affinity | higher affinity | 
CC(O)C(COP(=O)(O)OC(C)C(COP(=O)(O)OC(C)C(CO)NC(=O)c1c2ccccc2nc2ccccc12)NC(=O)c1c2ccccc2nc2c1[nH]c1ccccc12)NC(=O)c1c2ccccc2nc2ccccc12 (centres unmarked) [Example 44, O-{2-N-(Acridine-9-carbamoyl)-(1-hydroxybut-3-yl)} phosphate (3-1) O-{2-N-(10H-indolo[3,2-d]quinoline-11-carbamoyl)-3-oxybut-1-yl} phosphate (3-1) O-{2-N-(acridine-9-carbamoyl)-(3-hydroxybut-1-yl)}] |  |  |  |  |  | affinity (concentration of polymer retained, by fluorescence) (AT rich sequences): higher affinity; affinity (concentration of polymer retained, by fluorescence) [4]: higher affinity; affinity (concentration of polymer retained, by fluorescence) [5]: higher affinity; Fluorescence Excitation (nm) [3]: 359 nm; Fluorescence emission (nm) [3]: 438 nm
CC(=O)NCCN(CC(=O)NCCN(CC(=O)NCCCCCCO)C(=O)CNC(=O)c1c2ccccc2nc2c1[nH]c1ccccc12)C(=O)CNC(=O)c1c2ccccc2nc2c1[nH]c1ccccc12 [Example 48] | 349 nm | 495 nm |  |  |  | affinity (concentration of polymer retained, by fluorescence) [6]: high affinity; affinity (concentration of polymer retained, by fluorescence) [7]: high affinity
